Data from US12319672B2, “Alpha-D-galactopyranoside derivatives” (Idorsia Pharmaceuticals Ltd, priority 2019, dated 2025).

Legend:
human Gal-3 (hGal-3) = human Gal-3 (hGal-3) (Homo sapiens (Human), UniProt P17931); test: Competitive binding assay: binding of biotinylated hGal-3 to microplate-adsorbed asialofetuin (ASF); settings: Activity on hGal-3; mean values of several measurements
Method in brief: (§1)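 Biotin-hGal-3/hGal-1 300-1000 ng/mL + cpd (DMSO dilutions) on ASF-coated plate, 3 h 4° C; wash; SA-HRP 80 ng/mL 1 h 4° C; wash; ABTS. IC50 = mean of several runs. hGal-1 preferably Cys→Ser (all six) mutant.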

human Gal-1 (hGal-1) = test: Competitive binding assay: binding of biotinylated hGal-1 to microplate-adsorbed asialofetuin (ASF); settings: Activities on hGal-1; mean values of several measurements
Chain of human Gal-1 (hGal-1) (P09382 2-135 limits assumed): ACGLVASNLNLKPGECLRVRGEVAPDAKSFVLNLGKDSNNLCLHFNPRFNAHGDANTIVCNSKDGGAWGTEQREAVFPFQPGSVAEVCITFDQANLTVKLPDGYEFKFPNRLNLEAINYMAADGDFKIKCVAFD
Method in brief: as §1

Chain of human Gal-3 (hGal-3) (P17931 whole entry): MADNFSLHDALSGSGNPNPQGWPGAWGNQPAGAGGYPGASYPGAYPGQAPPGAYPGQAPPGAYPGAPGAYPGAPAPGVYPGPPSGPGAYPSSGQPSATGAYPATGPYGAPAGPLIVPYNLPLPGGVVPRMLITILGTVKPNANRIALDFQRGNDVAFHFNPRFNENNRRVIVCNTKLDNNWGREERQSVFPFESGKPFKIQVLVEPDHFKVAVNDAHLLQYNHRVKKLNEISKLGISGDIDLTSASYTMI

Row | IC50 (human Gal-3 (hGal-3)) | IC50 (human Gal-1 (hGal-1)) | SMILES
1 | 1240 nM | 13500 nM | CO[C@@H]1[C@@H](n2cc(-c3cc(F)c(F)c(F)c3)nn2)[C@@H](O)[C@@H](CO)O[C@@H]1Cn1cc(-c2cccc(F)c2)nn1 [Example 4.01, (2R,3R,4S,5R,6R)-6-((4-(3-fluorophenyl)-1H-1,2,3-triazol-1-yl)methyl)-2-(hydroxymethyl)-5-methoxy-4-(4-(3,4,5-trifluorophenyl)-1H-1,2,3-triazol-1-yl)tetrahydro-2H-pyran-3-ol]
2 | 690 nM | 20300 nM | CO[C@@H]1[C@@H](n2cc(-c3cc(F)c(F)c(F)c3)nn2)[C@@H](O)[C@@H](CO)O[C@@H]1Cn1cc(-c2ccc3[nH]c(=O)oc3c2)nn1 [Example 4.02, 6-(1-(((2R,3R,4S,5R,6R)-5-hydroxy-6-(hydroxymethyl)-3-methoxy-4-(4-(3,4,5-trifluorophenyl)-1H-1,2,3-triazol-1-yl)tetrahydro-2H-pyran-2-yl)methyl)-1H-1,2,3-triazol-4-yl)benzo[d]oxazol-2(3H)-one]
3 | 76 nM | 1760 nM | CO[C@@H]1[C@@H](n2cc(-c3cc(F)c(F)c(F)c3)nn2)[C@@H](O)[C@@H](CO)O[C@@H]1Cc1cn(C2CCOCC2)nn1 [Example 4.03, (2R,3R,4S,5R,6R)-2-(hydroxymethyl)-5-methoxy-6-((1-(tetrahydro-2H-pyran-4-yl)-1H-1,2,3-triazol-4-yl)methyl)-4-(4-(3,4,5-trifluorophenyl)-1H-1,2,3-triazol-1-yl)tetrahydro-2H-pyran-3-ol]
4 | 44 nM | 700 nM | CO[C@@H]1[C@@H](n2cc(-c3cc(F)c(F)c(F)c3)nn2)[C@@H](O)[C@@H](CO)O[C@@H]1Cn1cc(C2CCN(C(C)=O)CC2)nn1 [Example 4.04, 1-(4-(1-(((2R,3R,4S,5R,6R)-5-hydroxy-6-(hydroxymethyl)-3-methoxy-4-(4-(3,4,5-trifluorophenyl)-1H-1,2,3-triazol-1-yl)tetrahydro-2H-pyran-2-yl)methyl)-1H-1,2,3-triazol-4-yl)piperidin-1-yl)ethan-1-one]
5 | 35 nM | 140 nM | CO[C@@H]1[C@@H](n2cc(-c3cc(F)c(F)c(F)c3)nn2)[C@@H](O)[C@@H](CO)O[C@@H]1Cc1cn(C2CCN(C(=O)OC(C)(C)C)CC2)nn1 [Example 4.05, tert-butyl 4-(4-(((2R,3R,4S,5R,6R)-5-hydroxy-6-(hydroxymethyl)-3-methoxy-4-(4-(3,4,5-trifluorophenyl)-1H-1,2,3-triazol-1-yl)tetrahydro-2H-pyran-2-yl)methyl)-1H-1,2,3-triazol-1-yl)piperidine-1-carboxylate]

Continued, molecule first:

Row | SMILES | IC50 (human Gal-3 (hGal-3)) | IC50 (human Gal-1 (hGal-1))
6 | CO[C@@H]1[C@@H](n2cc(-c3cc(F)c(F)c(F)c3)nn2)[C@@H](O)[C@@H](CO)O[C@@H]1Cc1cc(C2CCN(S(=O)(=O)N3CCOCC3)CC2)on1 [Example 3.62, (2R,3R,4S,5R,6R)-2-(hydroxymethyl)-5-methoxy-6-((5-(1-(morpholinosulfonyl)piperidin-4-yl)isoxazol-3-yl)methyl)-4-(4-(3,4,5-trifluorophenyl)-1H-1,2,3-triazol-1-yl)tetrahydro-2H-pyran-3-ol] | 45 nM | 1350 nM
7 | CO[C@@H]1[C@@H](n2cc(-c3cc(F)c(F)c(F)c3)nn2)[C@@H](O)[C@@H](CO)O[C@@H]1Cc1cc(C2CCN(S(=O)(=O)N3CCCCC3)CC2)on1 [Example 3.63, (2R,3R,4S,5R,6R)-2-(hydroxymethyl)-5-methoxy-6-((5-(1-(piperidin-1-ylsulfonyl)piperidin-4-yl)isoxazol-3-yl)methyl)-4-(4-(3,4,5-trifluorophenyl)-1H-1,2,3-triazol-1-yl)tetrahydro-2H-pyran-3-ol] | 69 nM | 560 nM
8 | CO[C@@H]1[C@@H](n2cc(-c3cc(F)c(F)c(F)c3)nn2)[C@@H](O)[C@@H](CO)O[C@@H]1Cc1cc(C2CCN(S(=O)(=O)N3CCCC3)CC2)on1 [Example 3.64, (2R,3R,4S,5R,6R)-2-(hydroxymethyl)-5-methoxy-6-((5-(1-(pyrrolidin-1-ylsulfonyl)piperidin-4-yl)isoxazol-3-yl)methyl)-4-(4-(3,4,5-trifluorophenyl)-1H-1,2,3-triazol-1-yl)tetrahydro-2H-pyran-3-ol] | 25 nM | 760 nM
9 | CO[C@@H]1[C@@H](n2cc(-c3cc(F)c(F)c(F)c3)nn2)[C@@H](O)[C@@H](CO)O[C@@H]1Cc1cc(C2CCN(S(=O)(=O)N3CCC(F)(F)CC3)CC2)on1 [Example 3.65, (2R,3R,4S,5R,6R)-6-((5-(1-((4,4-difluoropiperidin-1-yl)sulfonyl)piperidin-4-yl)isoxazol-3-yl)methyl)-2-(hydroxymethyl)-5-methoxy-4-(4-(3,4,5-trifluorophenyl)-1H-1,2,3-triazol-1-yl)tetrahydro-2H-pyran-3-ol] | 45 nM | 1880 nM
10 | CO[C@@H]1[C@@H](n2cc(-c3cc(F)c(F)c(F)c3)nn2)[C@@H](O)[C@@H](CO)O[C@@H]1Cc1cc(C2CCN(C(=O)N3CCCCC3)CC2)on1 [Example 3.66, (4-(3-(((2R,3R,4S,5R,6R)-5-hydroxy-6-(hydroxymethyl)-3-methoxy-4-(4-(3,4,5-trifluorophenyl)-1H-1,2,3-triazol-1-yl)tetrahydro-2H-pyran-2-yl)methyl)isoxazol-5-yl)piperidin-1-yl)(piperidin-1-yl)methanone] | 140 nM | 3590 nM
11 | CO[C@@H]1[C@@H](n2cc(-c3cc(F)c(F)c(F)c3)nn2)[C@@H](O)[C@@H](CO)O[C@@H]1Cc1cc(C2CCN(C(=O)N3CCCC3)CC2)on1 [Example 3.67, (4-(3-(((2R,3R,4S,5R,6R)-5-hydroxy-6-(hydroxymethyl)-3-methoxy-4-(4-(3,4,5-trifluorophenyl)-1H-1,2,3-triazol-1-yl)tetrahydro-2H-pyran-2-yl)methyl)isoxazol-5-yl)piperidin-1-yl)(pyrrolidin-1-yl)methanone] | 69 nM | 920 nM
12 | CCN(C)C(=O)N1CCC(c2cc(C[C@H]3O[C@H](CO)[C@H](O)[C@H](n4cc(-c5cc(F)c(F)c(F)c5)nn4)[C@H]3OC)no2)CC1 [Example 3.68, N-ethyl-4-(3-(((2R,3R,4S,5R,6R)-5-hydroxy-6-(hydroxymethyl)-3-methoxy-4-(4-(3,4,5-trifluorophenyl)-1H-1,2,3-triazol-1-yl)tetrahydro-2H-pyran-2-yl)methyl)isoxazol-5-yl)-N-methylpiperidine-1-carboxamide] | 110 nM | 2460 nM
13 | CO[C@@H]1[C@@H](n2cc(-c3cc(F)c(F)c(F)c3)nn2)[C@@H](O)[C@@H](CO)O[C@@H]1Cc1cc(C2CCN(C(=O)N(C)C)CC2)on1 [Example 3.69, 4-(3-(((2R,3R,4S,5R,6R)-5-hydroxy-6-(hydroxymethyl)-3-methoxy-4-(4-(3,4,5-trifluorophenyl)-1H-1,2,3-triazol-1-yl)tetrahydro-2H-pyran-2-yl)methyl)isoxazol-5-yl)-N,N-dimethylpiperidine-1-carboxamide] | 170 nM | 2470 nM
14 | CO[C@@H]1[C@@H](n2cc(-c3cc(F)c(F)c(F)c3)nn2)[C@@H](O)[C@@H](CO)O[C@@H]1Cc1cc(C2CCN(C(=O)N3CCN(C)CC3)CC2)on1 [Example 3.70, (4-(3-(((2R,3R,4S,5R,6R)-5-hydroxy-6-(hydroxymethyl)-3-methoxy-4-(4-(3,4,5-trifluorophenyl)-1H-1,2,3-triazol-1-yl)tetrahydro-2H-pyran-2-yl)methyl)isoxazol-5-yl)piperidin-1-yl)(4-methylpiperazin-1-yl)methanone] | 84 nM | 820 nM
